US5428041A, “Antihypercholesterolemic bis-trifluoromethyl-substituted imidazolines and derivatives thereof” (The Du Pont Merck Pharmaceutical Company, priority 1992, dated 1995)
Counter-ions that a name gives are not always drawn.

How the values were obtained:
[1] = target: T1, Acyl-CoA: Cholesterol Acyltransferase (ACAT) (Rattus norvegicus, UniProt Q7TQM4); test: Inhibition of Acyl-CoA:Cholesterol Acyltransferase (ACAT) in hepatic microsomes; assay type: biochemical, Sprague Dawley rat; conditions: rat hepatic microsomes, 14C-oleoyl-CoA, 37° C., pH 7.4; read-out: In Vitro ACAT IC50
T1 construct: centrifuged at 105,000×g for 1 hour to pellet the microsomes; from tissue; host or cells: liver microsomes of fasted male Sprague Dawley rats
T1 sequence (Q7TQM4 1-524): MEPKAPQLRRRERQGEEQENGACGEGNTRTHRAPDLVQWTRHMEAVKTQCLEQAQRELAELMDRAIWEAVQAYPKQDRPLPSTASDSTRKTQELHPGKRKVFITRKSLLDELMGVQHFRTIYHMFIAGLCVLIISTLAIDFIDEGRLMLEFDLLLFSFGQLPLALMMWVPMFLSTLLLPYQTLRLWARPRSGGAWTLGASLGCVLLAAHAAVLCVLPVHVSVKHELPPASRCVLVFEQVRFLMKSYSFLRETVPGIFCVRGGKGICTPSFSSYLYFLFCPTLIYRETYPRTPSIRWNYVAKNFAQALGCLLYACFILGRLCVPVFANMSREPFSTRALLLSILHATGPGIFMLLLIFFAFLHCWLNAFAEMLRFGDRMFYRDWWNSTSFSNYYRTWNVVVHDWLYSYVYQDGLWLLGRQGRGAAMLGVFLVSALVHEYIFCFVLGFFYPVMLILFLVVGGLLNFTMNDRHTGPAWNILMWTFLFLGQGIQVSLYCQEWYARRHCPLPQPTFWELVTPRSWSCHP
Description: A. Assay of the Inhibition of Acyl-CoA: Cholesterol Acyltransferase (ACAT) in Hepatic Microsomes
The ability of the compounds to inhibit ACAT, the enzyme responsible for the intracellular synthesis of cholesteryl esters, was tested as follows. Male Sprague Dawley rates weighing 150-300 g were fed rat chow ad libitum. The animals were fasted for twenty-four hours prior to being sacrificed by decapitation. The livers were perfused in situ with 50 ml of cold 0.25M sucrose, excised and homogenized in three volumes of 0.1M phosphate buffer, pH 7.4, that contained 0.5 mM EDTA (ethylenediaminetetraacetic acid), 1.0 mM glutathione, 0.25M sucrose and 20 mM leupeptin. Microsomes were obtained by differential centrifugation; the supernatant from an initial spin at 15,000×g for 15 minutes was centrifuged at 105,000×g for 1 hour to pellet the microsomes. The microsomes were suspended in homogenization buffer, reisolated by centrifugation, and stored at -70° C. Microsomes were used within one month of preparation.
The control assay in a final volume of 200 μl consisted of 200 μg of microsomal protein, 75 μM ^14 C-oleoyl-CoA (10,000 dpm/nmol) in 0.1M phosphate, pH 7.4, that contained 1 mM glutathione. Compounds were added in 5-10 μl of DMSO (dimethyl sulfoxide or ethanol) and additional controls were run with DMSO or ethanol only. All components, except the oleoyl-CoA, were preincubated for 15 min. at 37° C. prior to the initiation of the reaction by the addition of oleoyl CoA. The assay was terminated after 10 min by the addition of 4 ml of chloroform:methanol (2:1, v/v). 20,000 dpm of ^3 H-cholesteryl oleate and 10 μg of unlabeled cholesteryl oleate and oleic acid were added as an internal standard and carrier, respectively. After allowing 10 min. for lipid extraction, 0.8 ml of deionized water was added to separate the solution into two phases. The lower chloroform phase was collected, dried under nitrogen and resuspended in 100 μl of chloroform. The sample containing the neutral lipids was spotted onto a Gelman ITLC-SA polysilicic acid gel-impregnated sheet, which was developed using a hexane: diethyl ether: acetic acid (170:30:1 v/v/v) mobile phase. The lipids were visualized by their interaction with iodine vapor and the cholesteryl ester spot was scraped into a scintillation vial and counted. The specific activity of ACAT in the control incubation averaged 260 pmol/min/mg microsomal protein. The inhibition of ACAT activity by the compounds is shown in Table 7; the data are expressed as the concentration at which ACAT activity is inhibited by 50% (IC50).

[2] = tested on: murine macrophage-like cell line J744.A1; test: Inhibition of cholesterol esterification in mammalian cells (macrophage); assay type: cell-based; conditions: Mus musculus; J744.A1 macrophage-like cells loaded with ac-LDL, 14C oleic acid
Description: B. Assay of the Inhibition of Cholesterol Esterification in Mammalian Cells The esterification of cholesterol was determined in the murine macrophage-like cell line J744.A1. Cells were seeded in 35 mm wells at a density of 300,000 cells per well in 2 mls of Dulbecco's Modified Eagle Medium (DMEM) supplemented with 10% fetal bovine serum (FBS). Cells were incubated at 37° C. in an atmosphere of 5% CO2 and 93% humidity. After 24 hours the media was changed to 0.68 mls 10% FBS-DMEM containing 34 μg of acetylated human low density lipoprotein (ac-LDL) to increase the intracellular concentration of cholesterol and promote esterification. At 41 hours, various inhibitors were added to the cells in DMSO (10 μl/ml maximum). At 43 hours, the cells were pulsed with 0.1 mM ^14 C oleic acid (10,000 dpm/nmol) complexed with BSA (bovine serum albumin) to follow cholesterol ester formation. The experiment was terminated at 45 hours by washing the monolayers 3 times with 3 ml of Tris-buffered saline at 4° C. The lipids were extracted by incubating the monolayers with 1.5 ml of hexane: isopropanol (3:2, v/v) for 30 min. under gentle agitation. During this period, 10,000 dpm ^3 H-cholesteryl linoleate and 10 μg of cholesteryl oleate were added as an internal standard and carrier respectively. The organic solvent was remoted and the cells were washed with an additional 1.0 ml of hexane: isopropanol which was combined with the original extract. The cells were allowed to dry overnight, digested with 1.5 ml of 0.2 N sodium hydroxide for 1 hour and an aliquot of the solubilized protein used for protein determination using the Lowry method. […] Individual lipids were visualized with iodine and the cholesteryl ester spot cut out and transferred to scintillation vials to determine the amount of radioactivity.

[3] = Water solubility of polymorphs; assay type: physicochemical; conditions: compared with the higher melting polymorph
[4] = Oral bioavailability of polymorphs; assay type: in vivo; conditions: compared to the higher melting form
ACAT = test: Systemic ACAT inhibitory activity; assay type: in vivo; conditions: oral, compared to the higher melting form

Row | Structure (SMILES) | IC50 [1] | IC50 [2] | water solubility relative to the 181°-183° C. melting polymorph [3] | oral bioavailability [4] | systemic ACAT inhibitory activity (ACAT)
1 | CN(C(=O)c1ccc(-c2ccccc2)cc1)C1N(C)C(c2ccc(F)cc2)=NC1(C(F)(F)F)C(F)(F)F (stereo not drawn) [Example 15, N-[4,4-bis(trifluoromethyl)-2-(4-fluorophenyl)-4,5-dihydro-1-methyl-1 H-imidazol-5-yl]-N-methyl-[1,1'-biphenyl]-4-carboxamide] | 17 µM | 11 µM | – | – | –
2 | CN(C(=O)c1ccc(C#N)cc1)C1N(C)C(c2ccc(C#N)cc2)=NC1(C(F)(F)F)C(F)(F)F (stereo not drawn) [132°-134° melting polymorph, N-[4,4-bis[trifluoromethyl)-4,5-dihydro-1-methyl-2-[4-cyanophenyl]-1H-imidazol-5-yl]-N-methyl-4-cyanobenzamide] | – | – | 3 fold | greater oral bioavailability | improved systemic ACAT inhibitory activity
3 | CN(C(=O)c1ccc(C#N)cc1)C1N(C)C(c2ccc(C#N)cc2)=NC1(C(F)(F)F)C(F)(F)F (stereo not drawn) [Example R, N-[4,4-bis(trifluoromethyl)-4,5-dihydro-1-methyl-2-[4-cyanophenyl]-1H-imidazol-5-yl]-N-methyl-4-cyanobenzamide] | 2 µM | 13 µM | – | – | –
4 | CN(C(=O)c1ccc(F)cc1)C1N(C)C(c2ccc(F)cc2)=NC1(C(F)(F)F)C(F)(F)F (stereo not drawn) [Example 10A, N-[4,4-bis(trifluoromethyl)2-(4-fluorophenyl)-4,5-dihydro-1-methyl-1H-imidazol-5-yl]-4-fluorophenyl-N-methylbenzamide] | 22 µM | 105 µM | – | – | –
5 | CN1C(c2ccc(F)cc2)=NC(C(F)(F)F)(C(F)(F)F)C1=NC(=O)c1ccc(F)cc1 [Example 2, N-[4,4-bis(trifluoromethyl)-2-(4-fluorophenyl)-4,5-dihydro-1-methyl-1H-imidazol-5-ylidene]-4-fluoro-benzamide] | 20 µM | > 100 µM | – | – | –
6 | CN(C(=O)C12CCC(C)(C(=O)O1)C2(C)C)C1N(C)C(c2ccc(F)cc2)=NC1(C(F)(F)F)C(F)(F)F (single isomer, unassigned) [Example 25] | 41 µM | 98 µM | – | – | –
7 | CCCCCCC(=O)N(C)C1N(C)C(c2ccc(N3CCCCC3)cc2)=NC1(C(F)(F)F)C(F)(F)F (stereo not drawn) [Example 33, N-[4,4-bis(trifluoromethyl)-4,5-dihydro-1-methyl-2-[4-(1-piperidinyl)phenyl]-1H-imidazol-5-yl]-N-methylheptanamide, hydrochloride] | 10 µM | 13 µM | – | – | –
